Source: PMC5412286, “Biosynthesis of α-Glucosidase Inhibitors by a Newly Isolated Bacterium, Paenibacillus sp. TKU042 and Its Effect on Reducing Plasma Glucose in a Mouse Model” (International Journal of Molecular Sciences, 2017)
Marks after values point to notes of the source that are not given here.

Experiments:
ICR mice = experiment: diarrhea / ill effects in the sucrose tolerance test; conditions: FNB 100, 200 or 400 mg, acarbose 12.5 mg, FNB (100, 200 mg) with acarbose 12.5 mg
Description: A sucrose solution was orally administered at 3 g/kg bw and blood was sampled and measured after 0.5, 1, 1.5 and 2 h.

Rat α-glucosidase = experiment: rat intestinal α-glucosidase inhibition assay; type: biochemical
Description: To determine rat intestinal α-glucosidase inhibition, the techniques from the previous report were followed, with modifications. One hundred mg of rat-intestinal acetone powder was suspended in 4 mL of 0.1 mol/L potassium phosphate buffer (NPB), pH 7. The suspension was sonicated several times for 12 s at 4 °C and then centrifuged for 20 min at 10,000× g. The residues were twice suspended with 3 mL of 0.1 mol/L NPB at pH 7, as described above. The resulting supernatant was mixed together and dialyzed for 12 h at 4–6 °C, and then used for the assay. The α-glucosidase, sample solutions and buffer were pre-mixed at volumes of 50, 50 and 100 μL, respectively. After pre-incubation at 37 °C for 20 min, the reaction started when 50 μL of p-nitrophenyl glucopyranoside (10 mmol/L) was added to the mixture. After 20 min at 37 °C, 100 μL Na2CO3 solution (1 mol/L) was added to terminate the reaction. The absorbance of the final mixture was measured at 410 nm and used to calculate inhibition (%) using the following equation: α-glucosidase inhibitory activity (%) = (A − B)/A × 100 where “A” is the absorbance of the control (buffer was used instead of sample with the same volume) and “B” is the absorbance of the final mixture containing the sample and α-glucosidase. The IC50 value was defined and determined as per the previous study. […]

[1] = molecular target: T1, Saccharomyces cerevisiae α-glucosidase (Saccharomyces cerevisiae, UniProt P53341); experiment: yeast α-glucosidase inhibition assay; type: biochemical; conditions: S. cerevisiae α-glucosidase
T1 construct: purchased Sigma Chemical Co., St. Louis, MO, USA
Description: SPP, SHP (shrimp head powder), and NB were used as the sole sources of C/N with concentrations of 1%, 1% and 0.8%, respectively. Fermentation conditions were set at 30 °C, shaking speed of 150 rpm, 100/250 mL for the medium/flask volume ratio, and 1 mL of bacterial seed solution (OD660nm = 0.38). The inhibition against yeast α-glucosidase was then tested and calculated in % (A) or U/mL (B); the growth of Paenibacillus sp. TKU042 was detected at OD660nm (C). […] Saccharomyces cerevisiae α-glucosidase was used to test aGI activity.
All of the isolated strains were incubated in a 250-mL Erlenmeyer flask with 50 mL of the same medium, but without agar. Fermentation was performed at 37 °C and a 150 rpm shaking speed. After 1–4 days of fermentation, the culture was centrifuged at 500 rpm for 10 min to remove the medium residue. The solution was then centrifuged again at 4000 rpm for 20 min to separate the cells from the culture supernatant. The supernatant was then used to test yeast α-glucosidase inhibitory activity. […] The screening of active bacteria was based on the inhibitory activity of the supernatant.
Three sources of C/N (1% SPP, 1% SHP, and 0.8% NB) were used to cultivate Paenibacillus sp. TKU042; conditions were set at 30 °C, a shaking speed of 150 rpm and a 100/250 mL medium/flask volume ratio for nine days. […]

[2] = DPPH radical scavenging activity assay
Description: One hundred and twenty microliters of each sample (at different concentrations) was mixed with 30 µL of a methanolic solution containing 0.75 mM DPPH radicals in the well of a plate with 96 wells. The mixture was kept in the dark for 30 min before absorbance at 517 nm was measured. Radical scavenging activity was calculated using the following formula: Antioxidant activity (%) = [(AB − AA)/AB] × 100 where AB and AA stand for absorption of the blank sample (t = 0 min) and absorption of the tested sample solution (t = 30 min), respectively. α-Tocopherol dissolved in MeOH was also analyzed as a control.

T1 sequence (P53341 whole entry): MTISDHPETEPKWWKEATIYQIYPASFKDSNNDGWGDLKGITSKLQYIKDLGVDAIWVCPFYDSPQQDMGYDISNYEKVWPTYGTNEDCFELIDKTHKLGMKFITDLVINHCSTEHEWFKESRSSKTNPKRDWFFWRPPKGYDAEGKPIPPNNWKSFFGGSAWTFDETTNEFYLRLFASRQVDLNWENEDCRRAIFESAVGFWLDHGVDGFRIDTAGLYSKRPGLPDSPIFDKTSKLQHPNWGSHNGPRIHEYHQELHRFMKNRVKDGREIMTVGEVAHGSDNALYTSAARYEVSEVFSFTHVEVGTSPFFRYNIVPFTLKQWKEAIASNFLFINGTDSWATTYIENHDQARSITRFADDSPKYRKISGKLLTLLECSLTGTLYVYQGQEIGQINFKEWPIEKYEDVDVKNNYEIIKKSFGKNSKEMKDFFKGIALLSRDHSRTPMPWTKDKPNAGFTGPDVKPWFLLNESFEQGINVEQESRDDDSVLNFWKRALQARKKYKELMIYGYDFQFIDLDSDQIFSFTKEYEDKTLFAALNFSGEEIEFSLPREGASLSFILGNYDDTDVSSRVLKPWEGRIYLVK

Row | SMILES | ill effects (diarrhea), in words (ICR mice) | IC50 (Rat α-glucosidase) | Maximum Inhibitory Activity (Rat α-glucosidase) | Maximum Inhibitory Activity [1] | antioxidant activity IC50 (DPPH radical scavenging) ([2]; DPPH, 30 min, 517 nm) | antioxidant activity achieved (DPPH) ([2]; maximum activity)
1 | C[C@H]1O[C@H](O[C@H]2[C@H](O)[C@@H](O)[C@@H](O[C@H]3[C@H](O)[C@@H](O)C(O)O[C@@H]3CO)O[C@@H]2CO)[C@H](O)[C@@H](O)[C@@H]1N[C@H]1C=C(CO)[C@@H](O)[C@H](O)[C@H]1O (stereo partly drawn) [acarbose] | No ill effects | 107 ± 2.5 ^c µg/mL | 89 ± 2.4% | 63 ± 2.5% | – | –
2 | Cc1c(C)c2c(c(C)c1O)CC[C@@](C)(CCC[C@H](C)CCC[C@H](C)CCCC(C)C)O2 [α-Tocopherol] | – | – | – | – | 24.7 ± 1.2 µg/mL | approximately 100%
